According to PubChem BioAssay AID2060495 (Molecular Pharmacology Branch, DTP, NCI, 2025):

Test system: 521955-158-R2-J5-PDC complex spheroid viability
Assay: Anticancer human tumor 521955-158-R2-J5-PDC patient-derived pancreatic carcinoma cell line growth inhibition [GQUAD]
Settings: for IC50: curve of first compound; for viability, T/C: stronger effect = lower value
Text: DNA G-quadruplex Stabilizer Agents in Combinations in Complex Spheroids
A high-throughput screen of multi-cell type tumor spheroids was designed to identify active combinations of DNA G-quadruplex stabilizer agents and targeted small molecules. Complex spheroids include a stromal component modeled by human endothelial cells (HUVEC) and fibroblasts modeled by human mesenchymal stem cells (MSCs). The concentration ranges selected for each drug and investigational agent were based upon clinically achievable concentrations if the clinical Cmax of the agent was known.
Compounds. The drugs and investigational agents: pidnarulex (CX-5461; NSC782164), APTO-253 (NSC789042), BRACO-19 (NSC847499), peposertib (NSC802822), ceralasertib (NSC780249), elimusertib (NSC800525), camonsertib (NSC841442), AZD-1390 (NSC803789), olaparib (NSC753686), talazoparib (NSC767125), ART-558 (NSC835418), sotorasib (NSC818433), MRTX-1133 (NSC836407), SN-38 (NSC673596), topotecan (NSC609699), etoposide (NSC141540), doxorubicin (NSC123127), gemcitabine (NSC613327), 5-fluorouracil (NSC19893), paclitaxel (NSC125973), vemurafenib (NSC761431), panobinostat (NSC761190), R-306465 (JNJ-16241199; NSC773264), adavosertib (NSC754352), TP-3654 (NSC805149), carboplatin (NSC241240), KSQ-4279 (NSC840948), and staurosporine (NSC755774) were obtained from the National Cancer Institute (NCI) Developmental Therapeutics Program Chemical Repository (34). The FDA-approved anticancer drug set is available from the NCI Developmental Therapeutics Program. […] The stock solutions were prepared in dimethyl sulfoxide (DMSO, Sigma-Aldrich, St. Louis, MO, cat. D2650) at 800-fold the tested concentration and stored at -70 degrees C prior to their use. All drugs and investigational agents were tested over a range starting from a high concentration at or near the clinical Cmax and decreasing in half-log increments. If the clinical Cmax for an agent had not been determined, the highest concentration tested was 10 microM.
2.3 Cell Culture. All cells were maintained in an incubator at 37 degrees C and 5% CO2 with 95% humidity. The PDC lines were cultured according to standard operating procedures established by the NCI PDMR. All PDCs were thawed and cultured in Matrigel-coated flasks prepared with a working solution of 1X Ham's F-12 nutrient mix, without supplementation (Invitrogen, cat. 11765054), 100 U/mL penicillin-streptomycin (Invitrogen, cat. 15140122), and 2.5% Matrigel (Corning Inc., cat. 354248) for the first three passages. The 857933-349-R-J2-PDC line was cultured in 6C/Colon 1B media, which includes advanced DMEM/F-12 (Thermo Fisher Scientific, cat. 12634028), 10 mM HEPES (Thermo Fisher Scientific, cat. 15630080), 1X GlutaMAX supplement (Thermo Fisher Scientific, cat. 35050061), 0.1 mg/mL primocin (InvivoGen, cat. ant-pm-2), 10% defined fetal bovine serum, heat inactivated (HyClone Laboratories Inc., cat. SH30070.03HI), 50% L-WRN conditioned media (ATCC, cat. CRL-3276), 1.25 mM N-Acetyl-L-cysteine (Sigma-Aldrich, cat. A9165), 10 mM nicotinamide (Sigma-Aldrich, cat. N0636), 1X B-27 supplement (Thermo Fisher Scientific, cat. 17504044), 1X N-2 supplement (Thermo Fisher Scientific, cat. 17502048), 10 microM Y-27632 dihydrochloride (Tocris Bioscience, cat. 1254), and 50 ng/mL human EGF recombinant protein (Thermo Fisher Scientific, cat. PHG0311). The 485176-168-R4-J1-PDC line was cultured in Panc media, which includes all 6C/Colon 1B media components plus 100 ng/mL human FGF-10 (Thermo Fisher Scientific, cat. 100-26), 500 nM SB-431542 (Selleckchem, cat. S1067), and gastrin (Tocris, cat. 3006).
[…]
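Further: spheroids exposed to agents for one week before reading.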
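Wherever viability, T/C is given: 100% = DMSO vehicle control viability.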

IC50 (second compound 0.0316 µM): 9260 nM
IC50 (second compound 0.1 µM): > 10000 nM
IC50 (second compound 0.316 µM): < 31.6 nM
IC50 (second compound 1 µM): < 31.6 nM
IC50 (second compound 3.16 µM): < 31.6 nM
IC50 (second compound 10 µM): < 31.6 nM
SMILES: CCCS(=O)(=O)Nc1ccc(F)c(C(=O)c2c[nH]c3ncc(-c4ccc(Cl)cc4)cc23)c1F + Cc1cnc(CNC(=O)c2c(=O)c3ccc(N4CCCN(C)CC4)nc3n3c2sc2ccccc23)cn1
viability, T/C (second compound 0.0316 µM, first compound 0.0316 µM): 79.5%
viability, T/C (second compound 0.0316 µM, first compound 0.1 µM): 63.5%
viability, T/C (second compound 0.0316 µM, first compound 0.316 µM): 113%
viability, T/C (second compound 0.0316 µM, first compound 1 µM): 113%
viability, T/C (second compound 0.0316 µM, first compound 3.16 µM): 109%
viability, T/C (second compound 0.0316 µM, first compound 10 µM): 46.8%
viability, T/C (second compound 0.1 µM, first compound 0.0316 µM): 52.4%
viability, T/C (second compound 0.1 µM, first compound 0.1 µM): 69.6%
viability, T/C (second compound 0.1 µM, first compound 0.316 µM): 59.4%
viability, T/C (second compound 0.1 µM, first compound 1 µM): 64%
viability, T/C (second compound 0.1 µM, first compound 3.16 µM): 61.8%
viability, T/C (second compound 0.1 µM, first compound 10 µM): 39%
viability, T/C (second compound 0.316 µM, first compound 0.0316 µM): 32%
viability, T/C (second compound 0.316 µM, first compound 0.1 µM): 37.3%
viability, T/C (second compound 0.316 µM, first compound 0.316 µM): 27.1%
viability, T/C (second compound 0.316 µM, first compound 1 µM): 32.6%
viability, T/C (second compound 0.316 µM, first compound 3.16 µM): 35.7%
viability, T/C (second compound 0.316 µM, first compound 10 µM): 26.4%
viability, T/C (second compound 1 µM, first compound 0.0316 µM): 17.8%
viability, T/C (second compound 1 µM, first compound 0.1 µM): 18.2%
viability, T/C (second compound 1 µM, first compound 0.316 µM): 17.9%
viability, T/C (second compound 1 µM, first compound 1 µM): 18.9%
viability, T/C (second compound 1 µM, first compound 3.16 µM): 24.2%
viability, T/C (second compound 1 µM, first compound 10 µM): 16.8%
viability, T/C (second compound 3.16 µM, first compound 0.0316 µM): 12.7%
viability, T/C (second compound 3.16 µM, first compound 0.1 µM): 14.3%
viability, T/C (second compound 3.16 µM, first compound 0.316 µM): 16.8%
viability, T/C (second compound 3.16 µM, first compound 1 µM): 16.1%
viability, T/C (second compound 3.16 µM, first compound 3.16 µM): 20.7%
viability, T/C (second compound 3.16 µM, first compound 10 µM): 0.32%
viability, T/C (second compound 10 µM, first compound 0.0316 µM): 9.58%
viability, T/C (second compound 10 µM, first compound 0.1 µM): 16.2%
viability, T/C (second compound 10 µM, first compound 0.316 µM): 16.9%
viability, T/C (second compound 10 µM, first compound 1 µM): 18.7%
viability, T/C (second compound 10 µM, first compound 3.16 µM): 21.4%
viability, T/C (second compound 10 µM, first compound 10 µM): 0.33%
